Data as given in ChEMBL document CHEMBL1221220, “Transport and signaling via the amino acid binding site of the yeast Gap1 amino acid transceptor” (Nat Chem Biol, 2009).
Calls of active or inactive are those of the source. No cut-off for these calls is given here. Non-standard residues stand in square brackets, D forms with d. Residues, ends and D or L forms follow the SMILES beside them. *: point of attachment. Hyp = O=C(O)[C@@H]1C[C@@H](O)CN1; Cit = NC(=O)NCCC[C@H](N)C(=O)O; NMeL = CN[C@@H](CC(C)C)C(=O)O; βNA = c1ccc2cc(N*)ccc2c1; Abu = CC[C@H](N)C(=O)O; Bz = O=C(c1ccccc1)*; βAla = NCCC(=O)O

molecular target: T1, General amino-acid permease GAP1 (Saccharomyces cerevisiae) (UniProt P19145); assay: Competitive inhibition of nitrogen-starved wild type sigma1278b yeast Gap1-mediated amino acid uptake at 5 mM after 60 secs relative to L-citrulline; details: not given
T1 sequence (whole entry): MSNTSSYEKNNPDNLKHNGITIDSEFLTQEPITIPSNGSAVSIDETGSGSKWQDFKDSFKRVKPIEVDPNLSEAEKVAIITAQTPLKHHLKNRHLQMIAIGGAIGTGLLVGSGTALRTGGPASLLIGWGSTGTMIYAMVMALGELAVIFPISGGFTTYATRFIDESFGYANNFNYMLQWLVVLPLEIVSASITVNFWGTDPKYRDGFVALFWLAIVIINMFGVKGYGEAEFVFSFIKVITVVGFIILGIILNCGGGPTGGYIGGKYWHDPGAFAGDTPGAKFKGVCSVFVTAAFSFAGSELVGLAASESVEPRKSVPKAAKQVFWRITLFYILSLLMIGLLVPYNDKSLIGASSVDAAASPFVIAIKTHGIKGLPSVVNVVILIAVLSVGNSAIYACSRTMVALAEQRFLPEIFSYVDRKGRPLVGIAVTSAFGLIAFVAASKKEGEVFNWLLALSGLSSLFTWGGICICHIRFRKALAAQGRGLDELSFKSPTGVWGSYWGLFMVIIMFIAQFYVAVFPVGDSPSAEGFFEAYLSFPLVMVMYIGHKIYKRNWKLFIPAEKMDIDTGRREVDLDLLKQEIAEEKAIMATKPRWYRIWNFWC

Work on `N[C@@H](CC(=O)O)C(=O)N[C@@H](Cc1ccccc1)C(=O)O` (H-Asp-Phe-OH) yielded an inhibition greater than 30%.

molecular target: T1, General amino-acid permease GAP1 (Saccharomyces cerevisiae); assay: Noncompetitive inhibition of nitrogen-starved wild type sigma1278b yeast Gap1-mediated amino acid uptake at 5 mM after 60 secs relative to L-citrulline; details: not given

Point of comparison: `CC(C)C[C@H](NC(=O)[C@H](CC(C)C)NC(=O)[C@@H](N)CC(C)C)C(=O)O` (H-Leu-Leu-Leu-OH), inhibition 15%. Against it:
- CC(C)C[C@H](NC(=O)CCCCN)C(=O)O — higher, > 30%
- CC(C)C[C@H](NC(=O)[C@H](C)N)C(=O)O (H-Ala-Leu-OH) — higher, > 30%
- CC(C)[C@H](NC(=O)CNC(=O)[C@H](C)N)C(=O)O (H-Ala-Gly-Val-OH) — higher, > 30%
- C[C@H](NC(=O)[C@H](Cc1ccccc1)NC(=O)[C@@H](N)CCCNC(=N)N)C(=O)O (H-Arg-Phe-Ala-OH) — higher, > 30%
- C[C@H](N)C(=O)NCC(=O)N[C@@H](C)C(=O)O (H-Ala-Gly-Ala-OH) — higher, > 30%
- CC(C)C[C@H](N)C(=O)N[C@H](CC(C)C)C(=O)O — higher, > 30%
- CC(C)C[C@H](NC(=O)[C@@H](NC(=O)[C@@H](N)CC(C)C)C(C)C)C(=O)O (H-Leu-Val-Leu-OH) — the same, 15%
- NC(N)=NCCC[C@H](N)C(=O)NCC(=O)O (H-Arg-Gly-OH) — higher, > 30%
- N=C(N)NCCC[C@H](NC(=O)[C@@H](N)CCCNC(=N)N)C(=O)Nc1ccc2ccccc2c1 (H-Arg-Arg-βNA) — higher, > 30%
- CC(C)C[C@H](NC(=O)[C@@H](N)CC(C)C)C(=O)N[C@@H](C)C(=O)O (H-Leu-Leu-Ala-OH) — the same, 15%
- N=C(N)NCCC[C@H](N)C(=O)NCC(=O)NCC(=O)O (H-Arg-Gly-Gly-OH) — higher, > 30%
- CC(N)C(=O)NC(Cc1ccccc1)C(=O)O (racemic) — higher, > 30%
- CSCC[C@H](NC(=O)[C@@H](N)CC(C)C)C(=O)O (H-Leu-Met-OH) — the same, 15%
- CC(C)C[C@H](NC(=O)[C@H](CC(C)C)NC(=O)CCN)C(=O)O (H-[βAla]-Leu-Leu-OH) — the same, 15%

molecular target: T1, General amino-acid permease GAP1 (Saccharomyces cerevisiae); assay: Induction of nitrogen-starved wild type sigma1278b yeast Gap1-mediated […] activation at 10 mM; details: not given

With `N[C@@H](CO)C(=O)O` the Activity was “Active”.
`N[C@@H](Cc1ccccc1)C(=O)O` was tested, and the Activity was “Active”.
`N[C@@H](Cc1c[nH]c2ccccc12)C(=O)O` was tested, and the Activity was “inactive”.
With `NCCCC[C@H](N)C(=O)O` the Activity was “inactive”.
With `C[C@@H](O)[C@H](N)C(=O)O` the Activity was “Active”.
For `O=C(O)[C@@H]1CCCN1`, the Activity was “Active”.
With `N[C@@H](CCC(=O)O)C(=O)O` the Activity was “Active”.
For `N[C@@H](CC(=O)O)C(=O)O`, the Activity was “Active”.
With `N[C@@H](Cc1c[nH]cn1)C(=O)O` the Activity was “inactive”.

molecular target: T1, General amino-acid permease GAP1 (Saccharomyces cerevisiae); details: sigma1278b, at 5 mM
Description: Inhibition of nitrogen-starved wild type sigma1278b yeast Gap1-mediated amino acid uptake at 5 mM after 60 secs relative to L-citrulline

Point of comparison: `CC[C@H](C)[C@H](N)C(=O)N[C@@H](C)C(=O)N1CCC[C@H]1C(=O)O` (H-Ile-Ala-Pro-OH), inhibition 15%. Against it:
- CC(C)[C@H](NC(=O)CNC(=O)CN)C(=O)O (H-Gly-Gly-Val-OH) — lower, < 15%
- NC(=O)C(N)Cc1c[nH]c2ccccc12 (racemic) — lower, < 15%
- C[C@@H](NC(=O)CN)C(=O)O (H-Gly-[dA]-OH) — lower, < 15%
- CC(C)[C@H](N)C(=O)NCC(=O)O (H-Val-Gly-OH) — lower, < 15%
- CC(=O)NC(Cc1ccc(Br)cc1)C(=O)O (racemic) — the same, 15%
- COC(=O)[C@H](Cc1ccccc1)NC(=O)C[C@H](N)C(=O)O — higher, > 30%
- CSCC[C@H](NC(=O)[C@@H](N)Cc1ccc(O)cc1)C(=O)NCC(=O)O (H-Tyr-Met-Gly-OH) — lower, < 15%
- CC(C)C[C@H](N)C(=O)N[C@@H](Cc1ccc(O)cc1)C(=O)O — higher, > 30%
- N[C@@H](CCC(=O)O)C(=O)N[C@@H](CCC(=O)O)C(=O)O (H-Glu-Glu-OH) — lower, < 15%
- CSCC[C@H](NC(=O)CN)C(=O)NCC(=O)O (H-Gly-Met-Gly-OH) — lower, < 15%
- N[C@@H](CO)C(=O)N[C@@H](Cc1ccc(O)cc1)C(=O)O (H-Ser-Tyr-OH) — lower, < 15%
- CC(C)[C@H](NC(=O)[C@@H](N)CCCNC(N)=O)C(=O)O (H-[Cit]-Val-OH) — lower, < 15%
- C[C@@H](O)C(NC(=O)CN)C(=O)O (mixture of isomers) — the same, 15%
- NCC(=O)NCC(=O)N1CCC[C@H]1C(=O)O (H-Gly-Gly-Pro-OH) — lower, < 15%
- C[C@@H](O)[C@H](N)C(=O)N[C@@H](CCCCN)C(=O)N[C@@H](Cc1ccc(O)cc1)C(=O)O (H-Thr-Lys-Tyr-OH) — lower, < 15%
- N[C@@H](CO)C(=O)N[C@@H](CO)C(=O)O (H-Ser-Ser-OH) — lower, < 15%
- NCC(N)=O — lower, < 15%
- N[C@H](CO)Cc1c[nH]c2ccccc12 — lower, < 15%
- CSCC[C@H](NC(=O)[C@@H](N)Cc1c[nH]c2ccccc12)C(=O)O (H-Trp-Met-OH) — lower, < 15%
- CSCC[C@H](N)C(=O)NCC(=O)N[C@@H](CC(=O)O)C(=O)O (H-Met-Gly-Asp-OH) — lower, < 15%
- CN[C@@H](Cc1cnc[nH]1)C(=O)O — lower, < 15%
- CC[C@H](C)[C@H](NC(C)=O)C(=O)O — lower, < 15%
- CSCC[C@H](NC(=O)[C@@H](N)[C@@H](C)O)C(=O)O (H-Thr-Met-OH) — lower, < 15%
- CSCC[C@H](N)C(=O)N[C@@H](CC(=O)O)C(=O)O (H-Met-Asp-OH) — lower, < 15%
- CC(=O)NCCCC[C@H](NC(C)=O)C(=O)O — lower, < 15%
- CC(C)C[C@H](N)C(=O)NCC(=O)NCC(=O)O (H-Leu-Gly-Gly-OH) — lower, < 15%
- CC[C@H](C)[C@H](N)C(=O)N[C@@H](CO)C(=O)O (H-Ile-Ser-OH) — lower, < 15%
- O=C(O)CNC(=O)CNC(=O)c1ccccc1 (Bz-Gly-Gly-OH) — lower, < 15%
- CSCC[C@H](NC(=O)[C@@H](N)Cc1ccc(O)cc1)C(=O)O (H-Tyr-Met-OH) — lower, < 15%
- COC(=O)[C@H](CO)NC(=O)OC(C)(C)C — lower, < 15%
- CC(C)[C@@H](NC(=O)CN)C(=O)O — lower, < 15%
- CC[C@H](C)[C@H](N)C(N)=O — lower, < 15%
- N[C@@H]1CONC1=O — lower, < 15%
- CC[C@H](C)[C@H](N)C(=O)N[C@H](C(=O)O)[C@@H](C)CC (H-Ile-Ile-OH) — lower, < 15%
- NCC(=O)NCCCC(=O)O — lower, < 15%
- NCC(=O)NCC(=O)N[C@@H](CCC(=O)O)C(=O)O (H-Gly-Gly-Glu-OH) — lower, < 15%
- C[C@H](NC=O)C(=O)O — higher, > 30%
- NCC(=O)N[C@@H](Cc1c[nH]c2ccccc12)C(=O)O (H-Gly-Trp-OH) — higher, > 30%
- CC(C)C[C@H](NC(=O)[C@@H](N)CC(C)C)C(=O)N[C@H](C(=O)O)C(C)C (H-Leu-Leu-Val-OH) — lower, < 15%
- CC(C)(C)OC(=O)N[C@@H](CCC(=O)O)C(=O)O — lower, < 15%
- CCOC(=O)[C@@H](N)CCSC — lower, < 15%
- N[C@@H](Cc1c[nH]cn1)C(=O)N[C@@H](CO)C(=O)O (H-His-Ser-OH) — lower, < 15%
- CC(C)C[C@H](NC(=O)CNC(=O)[C@@H](N)CC(C)C)C(=O)O (H-Leu-Gly-Leu-OH) — lower, < 15%
- NCC(=O)NCC(=O)N[C@@H](Cc1ccc(O)cc1)C(=O)O (H-Gly-Gly-Tyr-OH) — lower, < 15%
- NCC(=O)NCC(N)=O — lower, < 15%
- CC(C)C[C@H](NC(=O)CN)C(=O)O (racemic) — the same, 15%
- NCC(=O)NCC(=O)NCC(=O)O — lower, < 15%
- C[C@@H](CC(=O)O)NC(=O)OC(C)(C)C — lower, < 15%
- O=C(O)[C@@H]1CNCCN1 — lower, < 15%
- CC[C@H](C)[C@H](NC(=O)CN)C(=O)O (H-Gly-Ile-OH) — lower, < 15%
- CC[C@H](N)C(=O)N[C@@H](CC(C)C)C(=O)O (H-[Abu]-Leu-OH) — lower, < 15%
- NC(=O)[C@H](Cc1ccccc1)NC(=O)[C@@H](N)CC(=O)O (H-Asp-Phe-NH2) — lower, < 15%
- CCCC(NC(=O)CN)C(=O)O (racemic) — the same, 15%
- CN[C@@H](CC(C)C)C(=O)NCC(=O)O (H-[NMeL]-Gly-OH) — lower, < 15%
- CC(C)(C)OC(=O)NC(Cc1ccc(O)cc1)C(=O)O (stereo in doubt) — lower, < 15%
- CC[C@H](C)[C@H](N)C(=O)N[C@@H](CC(C)C)C(=O)O (H-Ile-Leu-OH) — higher, > 30%
- O=C(O)C[C@H](NC(=O)OCc1ccccc1)C(=O)O — lower, < 15%
- CC(C)C[C@H](NC(=O)[C@@H]1C[C@@H](O)CN1)C(=O)O (H-[Hyp]-Leu-OH) — lower, < 15%
- NC(=O)CC[C@H](NC(=O)[C@@H]1CCCN1)C(=O)O (H-Pro-Gln-OH) — lower, < 15%
- O=C(O)[C@H]1CNCCN1 — lower, < 15%
- CN[C@@H](CC(C)C)C(=O)N[C@@H](CC(C)C)C(=O)O — the same, 15%
- N[C@@H](CO)Cc1c[nH]c2ccccc12 — lower, < 15%
- CC(C)C[C@@H](N)C(=O)N[C@H](Cc1ccc(O)cc1)C(=O)O — lower, < 15%
- COC(=O)[C@@H](N)[C@@H](C)O — lower, < 15%
- NCCCC(=O)N[C@@H](Cc1cnc[nH]1)C(=O)O — lower, < 15%
- COC(=O)[C@@H]1C=CCN1 — lower, < 15%
- N[C@@H](Cc1c[nH]cn1)C(=O)NCC(=O)O (H-His-Gly-OH) — lower, < 15%
- O=C(O)[C@@H]1C=CCN1 — lower, < 15%
- CC(C)C[C@H](NC(=O)CN)C(=O)O — lower, < 15%
- CC(C)C[C@@H](N)CO — lower, < 15%
